In test [1] the target is Platelet-derived growth factor receptor beta (Homo sapiens, UniProt P09619). Kind of test: Inhibition of PDGFRbeta.
The subject of the next test is A-431. Kind of test: cells. As to conditions: Homo sapiens.
The target of test [2] is T1, Epidermal growth factor receptor (Homo sapiens, UniProt P00533). Kind of test: cell-based.
Test [3] deals with Vascular endothelial growth factor receptor 1 (Homo sapiens, UniProt P17948). Kind of test: cell-based.
For test [4], the target named is T2, Vascular endothelial growth factor receptor 2 (Homo sapiens, UniProt P35968). Kind of test: cell-based.
In test [5] the target is T1, Epidermal growth factor receptor.
Test [6] addresses T2, Vascular endothelial growth factor receptor 2.
For test [7], the system named is chorioallantoic membrane (Gallus gallus). Kind of test: cells. Particulars: Homo sapiens, A-431.

These results are taken from ChEMBL document CHEMBL1157122, “The contribution of a 2-amino group on receptor tyrosine kinase inhibition and antiangiogenic activity in 4-anilinosubstituted pyrrolo[2,3-d]pyrimidines” (Bioorg Med Chem Lett, 2010).

For orientation: IC50 means the concentration that gives 50% inhibition.

T2 sequence (P35968 whole entry): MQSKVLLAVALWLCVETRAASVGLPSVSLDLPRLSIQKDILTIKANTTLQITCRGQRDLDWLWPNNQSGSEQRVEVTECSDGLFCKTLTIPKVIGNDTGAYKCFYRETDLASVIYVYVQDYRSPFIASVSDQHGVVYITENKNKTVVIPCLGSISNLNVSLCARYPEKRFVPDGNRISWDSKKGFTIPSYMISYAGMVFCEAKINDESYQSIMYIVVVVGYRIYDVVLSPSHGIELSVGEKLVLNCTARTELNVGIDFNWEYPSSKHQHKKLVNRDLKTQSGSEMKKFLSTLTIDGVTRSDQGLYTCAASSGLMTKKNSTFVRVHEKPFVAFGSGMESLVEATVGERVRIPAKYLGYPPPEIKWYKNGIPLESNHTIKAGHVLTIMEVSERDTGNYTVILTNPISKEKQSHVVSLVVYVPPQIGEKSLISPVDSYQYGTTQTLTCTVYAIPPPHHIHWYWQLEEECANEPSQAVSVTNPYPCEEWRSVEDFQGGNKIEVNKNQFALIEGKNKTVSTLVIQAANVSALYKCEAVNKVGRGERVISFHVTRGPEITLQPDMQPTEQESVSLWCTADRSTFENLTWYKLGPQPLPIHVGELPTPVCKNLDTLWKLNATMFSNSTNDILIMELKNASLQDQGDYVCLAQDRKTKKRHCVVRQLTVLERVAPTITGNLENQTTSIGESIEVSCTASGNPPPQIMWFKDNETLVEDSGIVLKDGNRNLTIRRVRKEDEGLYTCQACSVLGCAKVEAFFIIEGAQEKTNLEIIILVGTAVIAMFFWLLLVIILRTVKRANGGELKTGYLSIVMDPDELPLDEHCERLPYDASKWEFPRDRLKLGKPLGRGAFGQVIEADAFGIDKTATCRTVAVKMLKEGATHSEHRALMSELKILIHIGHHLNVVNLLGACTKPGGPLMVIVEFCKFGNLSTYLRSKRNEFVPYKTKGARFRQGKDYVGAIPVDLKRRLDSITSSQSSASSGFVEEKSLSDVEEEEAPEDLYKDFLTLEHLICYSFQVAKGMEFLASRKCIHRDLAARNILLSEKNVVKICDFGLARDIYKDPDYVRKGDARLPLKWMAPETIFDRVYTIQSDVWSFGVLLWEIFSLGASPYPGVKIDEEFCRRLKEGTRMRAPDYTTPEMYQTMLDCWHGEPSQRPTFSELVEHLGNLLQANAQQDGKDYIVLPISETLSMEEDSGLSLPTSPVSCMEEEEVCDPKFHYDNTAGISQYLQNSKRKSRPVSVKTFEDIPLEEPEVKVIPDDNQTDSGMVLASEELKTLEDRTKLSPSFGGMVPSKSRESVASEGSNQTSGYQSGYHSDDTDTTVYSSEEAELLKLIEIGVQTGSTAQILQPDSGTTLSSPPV
Sequence of Platelet-derived growth factor receptor beta (P09619 whole entry): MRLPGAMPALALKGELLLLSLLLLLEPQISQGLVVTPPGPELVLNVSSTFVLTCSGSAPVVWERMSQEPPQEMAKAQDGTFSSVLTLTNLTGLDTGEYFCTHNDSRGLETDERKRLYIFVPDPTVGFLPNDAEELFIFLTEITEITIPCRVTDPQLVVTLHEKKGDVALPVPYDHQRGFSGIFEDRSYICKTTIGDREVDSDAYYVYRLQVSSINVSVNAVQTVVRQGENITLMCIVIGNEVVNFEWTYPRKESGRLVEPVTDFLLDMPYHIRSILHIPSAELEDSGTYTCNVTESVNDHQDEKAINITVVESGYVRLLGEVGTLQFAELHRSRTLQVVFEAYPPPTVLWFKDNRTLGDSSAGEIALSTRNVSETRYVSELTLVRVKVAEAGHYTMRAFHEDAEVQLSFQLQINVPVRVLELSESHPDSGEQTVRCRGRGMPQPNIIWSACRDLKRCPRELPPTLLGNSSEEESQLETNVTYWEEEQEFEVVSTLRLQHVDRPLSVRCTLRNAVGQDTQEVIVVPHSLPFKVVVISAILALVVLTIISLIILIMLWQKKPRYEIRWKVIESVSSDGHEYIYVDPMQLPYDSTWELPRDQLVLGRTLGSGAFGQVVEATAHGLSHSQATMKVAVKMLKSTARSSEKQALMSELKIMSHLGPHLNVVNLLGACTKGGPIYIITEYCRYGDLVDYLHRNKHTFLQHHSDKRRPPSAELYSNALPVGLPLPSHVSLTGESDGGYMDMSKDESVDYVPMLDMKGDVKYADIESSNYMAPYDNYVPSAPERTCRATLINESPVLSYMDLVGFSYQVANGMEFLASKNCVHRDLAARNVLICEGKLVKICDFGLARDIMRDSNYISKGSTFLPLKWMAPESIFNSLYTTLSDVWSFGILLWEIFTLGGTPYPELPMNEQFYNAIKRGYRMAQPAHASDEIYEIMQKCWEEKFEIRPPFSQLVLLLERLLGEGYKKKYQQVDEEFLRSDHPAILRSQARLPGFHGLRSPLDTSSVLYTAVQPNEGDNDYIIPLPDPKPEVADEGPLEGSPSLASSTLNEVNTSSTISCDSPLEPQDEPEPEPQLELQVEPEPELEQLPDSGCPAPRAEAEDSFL
T1 sequence (P00533 whole entry): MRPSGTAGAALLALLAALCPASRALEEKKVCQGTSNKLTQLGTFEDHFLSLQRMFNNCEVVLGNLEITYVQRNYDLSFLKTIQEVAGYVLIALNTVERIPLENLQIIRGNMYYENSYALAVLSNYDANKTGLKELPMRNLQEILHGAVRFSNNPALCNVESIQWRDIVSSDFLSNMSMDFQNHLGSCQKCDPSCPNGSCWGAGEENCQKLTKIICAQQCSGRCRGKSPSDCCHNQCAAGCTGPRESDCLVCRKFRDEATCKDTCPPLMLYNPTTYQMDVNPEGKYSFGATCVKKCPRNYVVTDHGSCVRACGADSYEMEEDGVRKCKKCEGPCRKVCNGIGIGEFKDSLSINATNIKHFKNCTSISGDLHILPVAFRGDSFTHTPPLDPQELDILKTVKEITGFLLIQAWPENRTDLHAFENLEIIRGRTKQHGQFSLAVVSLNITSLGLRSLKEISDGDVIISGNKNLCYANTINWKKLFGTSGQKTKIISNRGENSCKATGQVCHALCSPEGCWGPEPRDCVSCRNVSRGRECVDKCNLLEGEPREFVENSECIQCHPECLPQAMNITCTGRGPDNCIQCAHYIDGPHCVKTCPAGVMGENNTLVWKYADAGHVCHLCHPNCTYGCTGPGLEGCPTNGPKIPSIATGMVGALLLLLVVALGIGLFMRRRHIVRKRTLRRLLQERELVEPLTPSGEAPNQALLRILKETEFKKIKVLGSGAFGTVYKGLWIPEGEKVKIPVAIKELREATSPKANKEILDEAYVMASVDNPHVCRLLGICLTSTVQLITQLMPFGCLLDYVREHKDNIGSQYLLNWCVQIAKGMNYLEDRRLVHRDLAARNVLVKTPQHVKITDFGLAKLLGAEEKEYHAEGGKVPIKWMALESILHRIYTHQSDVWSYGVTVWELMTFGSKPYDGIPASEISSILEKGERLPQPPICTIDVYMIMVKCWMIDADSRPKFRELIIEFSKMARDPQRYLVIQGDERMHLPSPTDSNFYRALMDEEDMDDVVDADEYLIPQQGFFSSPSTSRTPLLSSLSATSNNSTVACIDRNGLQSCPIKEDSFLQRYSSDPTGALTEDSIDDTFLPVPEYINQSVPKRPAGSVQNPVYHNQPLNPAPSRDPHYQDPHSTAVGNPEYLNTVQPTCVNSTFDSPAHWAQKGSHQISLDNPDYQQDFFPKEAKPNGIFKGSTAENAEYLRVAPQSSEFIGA
Sequence of Vascular endothelial growth factor receptor 1 (P17948 whole entry): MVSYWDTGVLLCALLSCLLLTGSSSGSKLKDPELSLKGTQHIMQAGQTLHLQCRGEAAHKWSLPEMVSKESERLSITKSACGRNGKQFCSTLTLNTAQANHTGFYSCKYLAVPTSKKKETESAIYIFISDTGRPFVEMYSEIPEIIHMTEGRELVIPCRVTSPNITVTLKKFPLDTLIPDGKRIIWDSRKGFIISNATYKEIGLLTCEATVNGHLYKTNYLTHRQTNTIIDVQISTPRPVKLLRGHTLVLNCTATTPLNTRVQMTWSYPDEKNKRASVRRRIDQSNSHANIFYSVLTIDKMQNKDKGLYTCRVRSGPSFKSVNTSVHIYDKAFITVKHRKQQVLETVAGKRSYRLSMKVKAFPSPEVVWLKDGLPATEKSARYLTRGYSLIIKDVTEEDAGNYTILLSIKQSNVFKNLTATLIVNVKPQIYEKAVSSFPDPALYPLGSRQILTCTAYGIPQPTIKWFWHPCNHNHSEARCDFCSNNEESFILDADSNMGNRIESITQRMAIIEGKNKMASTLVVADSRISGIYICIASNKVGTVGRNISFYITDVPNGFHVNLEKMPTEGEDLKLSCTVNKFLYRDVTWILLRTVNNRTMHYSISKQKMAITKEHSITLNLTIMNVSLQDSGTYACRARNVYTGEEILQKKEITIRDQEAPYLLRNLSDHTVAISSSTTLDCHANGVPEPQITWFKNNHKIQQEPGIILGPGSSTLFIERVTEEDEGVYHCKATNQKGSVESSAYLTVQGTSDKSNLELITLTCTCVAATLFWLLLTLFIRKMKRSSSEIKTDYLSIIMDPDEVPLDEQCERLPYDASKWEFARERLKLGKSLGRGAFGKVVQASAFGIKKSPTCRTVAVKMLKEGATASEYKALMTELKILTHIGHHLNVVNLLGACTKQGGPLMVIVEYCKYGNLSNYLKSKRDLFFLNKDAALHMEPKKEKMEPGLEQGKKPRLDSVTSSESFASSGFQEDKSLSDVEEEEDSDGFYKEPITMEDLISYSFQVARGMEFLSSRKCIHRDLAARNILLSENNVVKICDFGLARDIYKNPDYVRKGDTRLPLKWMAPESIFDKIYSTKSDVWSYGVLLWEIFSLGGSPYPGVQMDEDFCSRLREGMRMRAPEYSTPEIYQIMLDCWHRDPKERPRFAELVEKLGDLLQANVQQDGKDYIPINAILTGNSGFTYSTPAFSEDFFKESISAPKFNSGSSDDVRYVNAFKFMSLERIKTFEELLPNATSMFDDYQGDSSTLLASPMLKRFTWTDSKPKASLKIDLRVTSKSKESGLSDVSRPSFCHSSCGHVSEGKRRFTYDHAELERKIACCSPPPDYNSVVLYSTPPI

As to `Brc1cccc(Nc2ncnc3[nH]c(CCc4ccccc4)cc23)c1`, the IC50 in test [1] was 8.5 µM; in the test on A-431, > 500 µM; in test [2], > 200 µM; in test [3] it was 129 µM; in test [4], 112 µM.

With `Fc1ccc(Nc2ncnc3[nH]c(CCc4ccccc4)cc23)cc1C(F)(F)F`, the IC50 is > 500 µM in test [1]; > 500 µM with A-431; > 200 µM in test [2]; 164 µM in test [3]; 57.5 µM in test [4].

Consider `Fc1cc(Cl)ccc1Nc1ncnc2[nH]c(CCc3ccccc3)cc12`, for which the IC50 in test [1] is > 500 µM; in test [2], > 200 µM; in test [3], > 200 µM; in test [4], 40.5 µM.

For the compound `Fc1ccc(Nc2ncnc3[nH]c(CCc4ccccc4)cc23)cc1Br`, the IC50 in test [1] was 192 µM; with A-431, > 500 µM; in test [2] it was > 200 µM; in test [3], > 200 µM; in test [4], 25.2 µM.

Take `C#Cc1cccc(Nc2ncnc3[nH]c(CCc4ccccc4)cc23)c1`: the half-maximal inhibitory concentration (IC50) in test [1] was > 500 µM; with A-431, > 500 µM; in test [2] it was > 200 µM; in test [3] it was 142 µM; in test [4], 49.4 µM.

For the compound `c1ccc(CCc2cc3c(Nc4ccc5[nH]ccc5c4)ncnc3[nH]2)cc1`, the IC50 was determined as 104 µM in test [1], 56.1 µM in test [2], 224 µM in test [3] and 31.6 µM in test [4].

On to `FC(F)(F)c1cccc(Nc2ncnc3[nH]c(CCc4ccccc4)cc23)c1`, for which the IC50 was > 500 µM in test [1]; > 500 µM in the test on A-431; > 200 µM in test [2]; > 200 µM in test [3]; 22.1 µM in test [4].

As to `Nc1nc(Nc2ccc(F)c(Br)c2)c2cc(CCc3ccccc3)[nH]c2n1`, the figures for the IC50 in test [5] and in test [6] were 22.8 µM and 132 µM, respectively.

In turn, `Nc1nc(Nc2cccc(Br)c2)c2cc(CCc3ccccc3)[nH]c2n1` had an IC50 in test [7] of 19.5 µM.
